One block for each compound: values may come before it.
Key:
[1] = Storage stability of the crystalline modification at elevated temperature; type: physicochemical
Protocol: The crystalline modification of cefuroximaxetil according to the invention is stable in storage. […] Even after storage for 2 months at 40° C. and 75% rel. atmospheric humidity, the content of the comparatively easily formed Δ^3-degradation product is still below 1.0 wt. %, which is indicative of excellent stability of the modification according to the invention.

[2] = Relative stability of binary mixtures of the modifications in water; type: physicochemical
[3] = Solubility / saturation solubility of cefuroximaxetil; type: physicochemical
[4] = cited from earlier work; for Solubility of the active ingredient (dissolved): after 45 minutes, standard method USP 23 page 316

- Change to the composition, chemically (decomposition products) or physically (solubility, X-ray diffractogram) ([1]; after storage at elevated temperature): no significant change
- Content of Δ^3-degradation product ([1]; after storage for 2 months at 40° C. and 75% rel. atmospheric humidity): below 1.0 wt. %
- Stability relative to the α-, β- and γ-modification [2]: stabler
Structure (SMILES): CO/N=C(\C(=O)N[C@@H]1C(=O)N2C(C(=O)OC(C)OC(C)=O)=C(COC(N)=O)CS[C@H]12)c1ccco1 (some centres unmarked) [δ-modification, cefuroximaxetil]

Structure (SMILES): CO/N=C(\C(=O)N[C@@H]1C(=O)N2C(C(=O)OC(C)OC(C)=O)=C(COC(N)=O)CS[C@H]12)c1ccco1 (stereo partly drawn) [Cefuroximaxetil, 1-acetoxyethyl ester of cefuroxime, i.e. of (6R,7R)-3-carbamoyloxymethyl-7-[(Z)-2-(fur-2-yl)-2-methoxyiminoacetamido]ceph-3-em-4-carboxylic acid]
- Saturation solubility ([3]; in the dissolution medium (1000 ml), artificial gastric juice + Tween 80): 600 mg
- Solubility ([3]; largely pH-independent): approx. 0.5 mg/ml

Structure (SMILES): CO/N=C(\C(=O)N[C@@H]1C(=O)N2C(C(=O)OC(C)OC(C)=O)=C(COC(N)=O)CS[C@H]12)c1ccco1 (stereo partly drawn) [α-modification, cefuroximaxetil]
- Solubility when tested according to USP 23 ([4]; minimum: 60% in 15 minutes, 75% within 45 minutes): does not achieve the specified minimum solubility

Structure (SMILES): CO/N=C(\C(=O)N[C@@H]1C(=O)N2C(C(=O)OC(C)OC(C)=O)=C(COC(N)=O)CS[C@H]12)c1ccco1 (stereo partly drawn) [β-modification, cefuroximaxetil]
- Solubility of the active ingredient (dissolved) [4]: over 40%

Structure (SMILES): CO/N=C(\C(=O)N[C@@H]1C(=O)N2C(C(=O)OC(C)OC(C)=O)=C(COC(N)=O)CS[C@H]12)c1ccco1 (some centres unmarked) [γ-modification, cefuroximaxetil]
- Solubility of the active ingredient (dissolved) [4]: 73.0%

From patent US8747900B2, “Dosage form with improved release of cefuroximaxetil” (Gruenenthal GmbH, priority 2005, dated 2014)
